The experiment has as its system P388 leukemia ip, CD2F1 mice, survival T/C. As to the kind of experiment: NCI In Vivo Anticancer Drug Screen. Data for tumor model P388 Leukemia (intraperitoneal) in CD2F1 (CDF1) mice. To be noted: endpoint: median survival time, higher = longer survival. The method, boiled down: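 Mice carrying the transplanted tumor received test compound or vehicle. Survival was recorded in each group, and the value is the treated-group measurement divided by that of the vehicle-treated control group.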

[1] abbreviates: dose: 6.25 mg/kg/injection, schedule: Q01DX009 (ip), vehicle: saline.
Where [2] appears, read: dose: 50.0 mg/kg/injection, schedule: Q01DX009 (ip), vehicle: saline with Tween-80.
Setting [3] is: dose: 100.0 mg/kg/injection, schedule: Q01DX009 (ip), vehicle: saline with Tween-80.
[4] abbreviates: dose: 50.0 mg/kg/injection, schedule: Q01DX005 (ip), vehicle: saline with Tween-80.
The mark [5] stands for this setting: dose: 60.0 mg/kg/injection, schedule: Q01DX005 (ip), vehicle: saline with Tween-80.
The mark [6] stands for this setting: dose: 120.0 mg/kg/injection, schedule: Q01DX005 (ip), vehicle: saline with Tween-80.
Setting [7] is: dose: 240.0 mg/kg/injection, schedule: Q01DX005 (ip), vehicle: saline with Tween-80.
[8] abbreviates: dose: 100.0 mg/kg/injection, schedule: Q01DX001 (ip), vehicle: Klucel (hydroxypropylcellulose) (HPC).
The mark [9] stands for this setting: dose: 200.0 mg/kg/injection, schedule: Q01DX001 (ip), vehicle: Klucel (hydroxypropylcellulose) (HPC).

Values joined by “and” are separate entries in the source; they are usually repeats but may differ in a detail not shown here. Equal entries are not always repeated. Toxic doses and inconclusive results are not listed.

With `Cc1ccc(NC(=O)Oc2ccc(Cl)cc2Cl)c([N+](=O)[O-])c1`, the T/C reads like this: (dose: 50.0 mg/kg/injection, schedule: Q01DX009 (ip), vehicle: gum acacia) 109 % of control; (dose: 100.0 mg/kg/injection, schedule: Q01DX009 (ip), vehicle: gum acacia) 109 % of control; (dose: 200.0 mg/kg/injection, schedule: Q01DX009 (ip), vehicle: gum acacia) 109 % of control.

Regarding `C=CCN(CC=C)C(N)=Nc1ccc(Cl)cc1`, the T/C runs as follows: under setting [1], 100 % of control; (dose: 12.5 mg/kg/injection, schedule: Q01DX009 (ip), vehicle: saline) 94 % of control; (dose: 25.0 mg/kg/injection, schedule: Q01DX009 (ip), vehicle: saline) 97 % of control.

Take `Cn1c(=O)c2conc2n(-c2ccc(Cl)cc2)c1=O`: the T/C runs as follows: (dose: 25.0 mg/kg/injection, schedule: Q01DX009 (ip), vehicle: saline with Tween-80) 100 % of control; under setting [2], 103 % of control; under setting [3], 95 % of control.

For the molecule `O=C(O)c1cccc(O)c1O`, the T/C runs as follows: (dose: 100.0 mg/kg/injection, schedule: Q01DX009 (ip), vehicle: saline) 101 % of control and 104 % of control; (dose: 200.0 mg/kg/injection, schedule: Q01DX009 (ip), vehicle: saline) 89 % of control and 96 % of control; (dose: 600.0 mg/kg/injection, schedule: Q01DX009 (ip), vehicle: saline) 101 % of control and 89 % of control.

For `COc1cc2cc3c4cc(OC)c(OC)cc4cc[n+]3c(C)c2cc1OC`, the T/C by setting is: (dose: 25.0 mg/kg/injection, schedule: Q01DX009 (ip), vehicle: other) 155 % of control; (dose: 50.0 mg/kg/injection, schedule: Q01DX009 (ip), vehicle: other) 152 % of control and 169 % of control and 178 % of control; (dose: 50.0 mg/kg/injection, schedule: Q01DX009 (ip), vehicle: saline sonified) 109 % of control; (dose: 50.0 mg/kg/injection, schedule: Q04DX003 (ip), vehicle: other) 156 % of control and 158 % of control; (dose: 100.0 mg/kg/injection, schedule: Q01DX009 (ip), vehicle: other) 172 % of control and 189 % of control and 198 % of control; (dose: 100.0 mg/kg/injection, schedule: Q01DX009 (ip), vehicle: saline sonified) 109 % of control. The T/C (dose: 100.0 mg/kg/injection, schedule: Q01DX009 (oral), vehicle: saline) is 104 % of control; the T/C (dose: 100.0 mg/kg/injection, schedule: Q04DX003 (ip), vehicle: other) was 153 % of control and 169 % of control and 177 % of control; the T/C (dose: 200.0 mg/kg/injection, schedule: Q01DX001 (oral), vehicle: saline) was 104 % of control; the T/C (dose: 200.0 mg/kg/injection, schedule: Q01DX009 (ip), vehicle: other) is 153 % of control and 162 % of control; the T/C (dose: 200.0 mg/kg/injection, schedule: Q01DX009 (ip), vehicle: saline sonified) was 109 % of control; the T/C (dose: 200.0 mg/kg/injection, schedule: Q01DX009 (oral), vehicle: saline) was 104 % of control. Further, the T/C (dose: 200.0 mg/kg/injection, schedule: Q04DX003 (ip), vehicle: other) is 166 % of control (2×) and 199 % of control; the T/C (dose: 200.0 mg/kg/injection, schedule: Q04DX003 (oral), vehicle: saline) is 104 % of control; the T/C (dose: 400.0 mg/kg/injection, schedule: Q01DX001 (oral), vehicle: saline) is 100 % of control; the T/C (dose: 400.0 mg/kg/injection, schedule: Q01DX009 (ip), vehicle: other) was 182 % of control; the T/C (dose: 400.0 mg/kg/injection, schedule: Q01DX009 (ip), vehicle: saline sonified) is 90 % of control; the T/C (dose: 400.0 mg/kg/injection, schedule: Q01DX009 (oral), vehicle: saline) was 100 % of control. Also, the T/C runs as follows: (dose: 400.0 mg/kg/injection, schedule: Q04DX003 (ip), vehicle: other) 161 % of control and 165 % of control and 191 % of control; (dose: 400.0 mg/kg/injection, schedule: Q04DX003 (ip), vehicle: saline sonified) 150 % of control; (dose: 400.0 mg/kg/injection, schedule: Q04DX003 (oral), vehicle: saline) 104 % of control; (dose: 800.0 mg/kg/injection, schedule: Q01DX001 (oral), vehicle: saline) 104 % of control; (dose: 800.0 mg/kg/injection, schedule: Q04DX003 (oral), vehicle: saline) 109 % of control.

As to `O=C(O)C(Cc1ccccc1)NSc1ccccc1[N+](=O)[O-]` (stereo unspecified), the T/C runs as follows: (dose: 25.0 mg/kg/injection, schedule: Q01DX009 (ip), vehicle: distilled water + Tween-80) 98 % of control and 100 % of control; (dose: 50.0 mg/kg/injection, schedule: Q01DX009 (ip), vehicle: distilled water + Tween-80) 107 % of control; (dose: 100.0 mg/kg/injection, schedule: Q01DX009 (ip), vehicle: distilled water + Tween-80) 100 % of control and 116 % of control; (dose: 200.0 mg/kg/injection, schedule: Q01DX009 (ip), vehicle: distilled water + Tween-80) 109 % of control.

In the case of `CS(=O)(=O)Nc1ccc(NC(=O)c2c3ccccc3nc3ccccc23)cc1`, the T/C is 103 % of control (dose: 12.5 mg/kg/injection, schedule: Q01DX005 (ip), vehicle: saline with Tween-80); 99 % of control (dose: 25.0 mg/kg/injection, schedule: Q01DX005 (ip), vehicle: saline with Tween-80); 109 % of control and 110 % of control under setting [4].

Regarding `CC(NNC(=S)N1CCCC1)c1ccccn1` (stereo unspecified), the T/C under setting [4] was 107 % of control and the T/C (dose: 100.0 mg/kg/injection, schedule: Q01DX005 (ip), vehicle: saline with Tween-80) was 105 % of control.

Regarding `[O-]/[N+](=N/O)C(c1ccccc1)c1ccccc1`, the T/C (dose: 3.0 mg/kg/injection, schedule: Q01DX005 (ip), vehicle: Klucel + Tween-80) is 104 % of control; the T/C (dose: 6.0 mg/kg/injection, schedule: Q01DX005 (ip), vehicle: Klucel + Tween-80) was 98 % of control; the T/C (dose: 12.0 mg/kg/injection, schedule: Q01DX005 (ip), vehicle: Klucel + Tween-80) was 100 % of control; the T/C (dose: 24.0 mg/kg/injection, schedule: Q01DX005 (ip), vehicle: Klucel + Tween-80) is 97 % of control.

In the case of `[CH3][Sn]([CH3])([Cl])[S]CCN`, the T/C by setting is: (dose: 0.78 mg/kg/injection, schedule: Q01DX009 (ip), vehicle: saline) 99 % of control; (dose: 1.56 mg/kg/injection, schedule: Q01DX009 (ip), vehicle: saline) 105 % of control; (dose: 3.12 mg/kg/injection, schedule: Q01DX009 (ip), vehicle: saline) 123 % of control; under setting [1], 120 % of control.

Regarding `N#CC(c1ccc(Cl)cc1)C(c1ccccc1)c1ccccc1` (stereo unspecified), the T/C was 112 % of control under setting [2]; 107 % of control under setting [3]; 112 % of control (dose: 200.0 mg/kg/injection, schedule: Q01DX009 (ip), vehicle: saline with Tween-80).

On to `O=C1CSC(c2cccc(F)c2)N1c1nncs1` (stereo unspecified), for which the T/C runs as follows: under setting [5], 98 % of control; under setting [6], 105 % of control; under setting [7], 106 % of control.

On to `CC(=O)OCC1OC([Se-])C(OC(C)=O)C(OC(C)=O)C1OC(C)=O.N#CCC[PH+](CCC#N)CCC#N.[Au+]` (stereo unspecified), for which the T/C under setting [5] is 98 % of control.

For the molecule `Oc1cccc(/C=N/N2CCc3ccccc3C2)c1`, the T/C runs as follows: (dose: 50.0 mg/kg/injection, schedule: Q01DX001 (ip), vehicle: Klucel (hydroxypropylcellulose) (HPC)) 96 % of control; under setting [8], 100 % of control; under setting [9], 92 % of control.

As to `C=Cn1c([N+](=O)[O-])cnc1/C=C/c1ccc(C(=O)NC)cc1`, the T/C (dose: 100.0 mg/kg/injection, schedule: Q04DX002 (ip), vehicle: saline with Tween-80) was 100 % of control; the T/C (dose: 200.0 mg/kg/injection, schedule: Q04DX002 (ip), vehicle: saline with Tween-80) is 102 % of control; the T/C (dose: 400.0 mg/kg/injection, schedule: Q04DX002 (ip), vehicle: saline with Tween-80) was 95 % of control.

As for `[N-]=[N+]=NC(c1ccccc1)n1nnnc1-c1ccccc1` (stereo unspecified), the T/C was 101 % of control and 88 % of control under setting [8]; 102 % of control and 95 % of control under setting [9]; 98 % of control and 120 % of control (dose: 400.0 mg/kg/injection, schedule: Q01DX001 (ip), vehicle: Klucel (hydroxypropylcellulose) (HPC)).

With `COc1ccc2nc3cc(Cl)ccc3c(NCC(O)CNc3c4ccc(Cl)cc4nc4ccc(OC)nc34)c2n1`, the T/C by setting is: under setting [5], 92 % of control; under setting [6], 90 % of control; under setting [7], 90 % of control.

The values above are taken from PubChem BioAssay AID330 (DTP/NCI, 2004).
